Reference: patent publication US12357617B2, “Discovery of novel anti-infectives for gram negative pathogens” (priority 2018, dated 2025)
In brackets after ≈: the same amount, converted by molar mass. Entries after “also recorded” stand apart in the source; their conditions may differ. Where two headings read alike, the source gives them in different places.

Tests used:
HEK293 cells = test: CellTiter-Glo cell viability (cellular toxicity) assay; settings: for TD = toxic dose (dose at which HEK293 cell growth is significantly affected): Celltitre-Glo, HEK293 cells; for effect on HEK293 cell viability: concentrations 10-fold higher than the IC100, ATP-depletion assay
Bm 23344 = assay type: cell-based, Burkholderia mallei
Bp MSHR305 = assay type: cell-based, Burkholderia pseudomallei
Bp 1026b [1] = assay type: cell-based, Burkholderia pseudomallei
[2] = tested on: T6SS-5 secretion activity (Hcp), Bt E264; assay type: cell-based, Burkholderia thailandensis
[3] = reference 37; cited from earlier work
Bt [4] = test: microbe, parasite or virus in culture; assay type: cell-based, Burkholderia thailandensis; settings: for MIC: Burkholderia thailandensis, read-out: in vitro MIC
Bt [5] = assay type: cell-based, Burkholderia thailandensis
[6] = tested on: virulence loci (virG, bsaM, bimA, vgrG) of Bt E264; assay type: cell-based, Burkholderia thailandensis
Bt [7] = assay type: cell-based, Burkholderia thailandensis; remark: listed apart in the source
Bp 1026b [8] = assay type: in vivo, BALB/c mice
[9] = tested on: T6SS-5 secretion activity (Hcp), Bp 1026b; assay type: cell-based, Burkholderia pseudomallei
Bt E264 = assay type: cell-based, Burkholderia thailandensis
[10] = tested on: S. aureus resistant isolate 2; test: MIC by broth microdilution, S. aureus resistant isolate 2; assay type: cell-based; settings: Staphylococcus aureus
E. coli DNA gyrase = target: T1, E. coli DNA gyrase (Escherichia coli, UniProt P0AES4+P0AES6); test: E. coli DNA gyrase negative supercoiling assay; assay type: biochemical; settings: 100 uM or 500 uM, agarose gel
T1 construct: purchased New England Biolabs

Bp82.270 (BpeEF-OprC+) = test: microbe, parasite or virus in culture; assay type: cell-based; settings: Burkholderia pseudomallei
S. aureus ATCC 29213 = test: MIC by broth microdilution, S. aureus ATCC 29213; assay type: cell-based; settings: Staphylococcus aureus, ATCC29213
[11] = tested on: E. coli resistant isolate 1; test: MIC by broth microdilution, E. coli resistant isolate 1; assay type: cell-based; settings: Escherichia coli; E. coli resistant isolate 1 (Cip-resistant clinical isolate)
[12] = tested on: P. aeruginosa resistant isolate 1; test: MIC by broth microdilution, P. aeruginosa resistant isolate 1; assay type: cell-based; settings: Pseudomonas aeruginosa
E. coli 25922 = test: MIC by broth microdilution, E. coli 25922; assay type: cell-based, Escherichia coli; settings: for MIC: Escherichia coli, E. coli 25922, broth microdilution
[13] = tested on: P. aeruginosa resistant isolate 2; test: MIC by broth microdilution, P. aeruginosa resistant isolate 2; assay type: cell-based; settings: Pseudomonas aeruginosa
[14] = tested on: E. coli resistant isolate 2; test: MIC by broth microdilution, E. coli resistant isolate 2; assay type: cell-based; settings: Escherichia coli; E. coli resistant isolate 2 (Cip-resistant clinical isolate)
Bp82 (BpeEF-OprC-) = test: microbe, parasite or virus in culture; assay type: cell-based; settings: Burkholderia pseudomallei
Bp82.284 (BpeEF-OprC+) = test: microbe, parasite or virus in culture; assay type: cell-based; settings: Burkholderia pseudomallei
Bp82.285 (BpeEF-OprC+) = test: microbe, parasite or virus in culture; assay type: cell-based; settings: Burkholderia pseudomallei
[15] = tested on: S. aureus resistant isolate 1; test: MIC by broth microdilution, S. aureus resistant isolate 1; assay type: cell-based; settings: Staphylococcus aureus
[16] = tested on: P. aueruginosa ATCC 27853; test: MIC by broth microdilution, P. aeruginosa ATCC 27853; assay type: cell-based, Pseudomonas aeruginosa; settings: for MIC: Pseudomonas aeruginosa, ATCC27853

T1 sequence (P0AES4 whole entry, one chain of several): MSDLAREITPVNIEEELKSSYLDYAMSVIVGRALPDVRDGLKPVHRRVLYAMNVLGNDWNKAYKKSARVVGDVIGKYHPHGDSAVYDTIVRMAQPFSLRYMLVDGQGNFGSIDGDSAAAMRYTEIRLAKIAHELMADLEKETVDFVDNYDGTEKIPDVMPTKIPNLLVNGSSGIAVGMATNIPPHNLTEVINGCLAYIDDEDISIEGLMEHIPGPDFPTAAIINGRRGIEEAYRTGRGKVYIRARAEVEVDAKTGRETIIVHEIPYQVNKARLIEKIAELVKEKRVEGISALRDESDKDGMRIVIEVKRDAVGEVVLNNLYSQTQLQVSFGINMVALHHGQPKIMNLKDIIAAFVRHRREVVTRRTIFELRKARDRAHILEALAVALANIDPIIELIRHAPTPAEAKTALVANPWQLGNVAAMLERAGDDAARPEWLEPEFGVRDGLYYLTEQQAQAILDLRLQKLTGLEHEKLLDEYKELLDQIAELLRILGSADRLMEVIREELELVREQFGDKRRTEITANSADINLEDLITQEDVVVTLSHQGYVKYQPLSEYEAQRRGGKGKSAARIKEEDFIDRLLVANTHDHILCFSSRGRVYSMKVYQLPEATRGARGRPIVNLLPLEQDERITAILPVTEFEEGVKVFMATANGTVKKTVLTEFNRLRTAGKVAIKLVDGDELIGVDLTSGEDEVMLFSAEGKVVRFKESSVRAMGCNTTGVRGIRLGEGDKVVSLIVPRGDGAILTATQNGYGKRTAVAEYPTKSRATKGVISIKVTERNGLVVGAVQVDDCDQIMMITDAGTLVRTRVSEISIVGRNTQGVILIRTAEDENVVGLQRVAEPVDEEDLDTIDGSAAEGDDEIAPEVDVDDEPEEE

Nc1nc(=O)[nH]cc1F [5-FC, flucytosine]
TD = toxic dose (dose at which HEK293 cell growth is significantly affected) (HEK293 cells): >50 µM | effect on HEK293 cell viability (HEK293 cells): no effect on cell viability | inhibition of plaque formation by Bm 23344 (validation) (Bm 23344): ineffective | plaque formation by Bp MSHR305 (Bp MSHR305): effective at ablating plaque formation | ED = effective dose (IC100) against Bp (Bp 1026b [1]): 3.1 µM | inhibition of plaque formation by Bp 1026b (validation) (Bp 1026b [1]): activity against Bp and Bt | plaque formation by Bp at increasing concentrations (Bp 1026b [1]): inhibits plaque formation | expression of Hcp (pellet) [2]: does not affect expression of Hcp | secretion of Hcp (supernatant) [2]: inhibits secretion of Hcp | bioavailability [3]: good bioavailability | in vitro growth of Bt (Bt [4]): does not significantly inhibit in vitro growth | decrease in peak intracellular bacterial numbers (Bt [5]): 3 fold | intracellular replication of Bt (Bt [5]): delays and decreases, but does not eliminate | intracellular replication of a fusion defective mutant (ΔvgrG) (Bt [5]): does not inhibit the intracellular replication | reduction in the expression of virG, bsaM, bimA, and vgrG [6]: ≤ 4 fold | actin-mediated intracellular motility (bacteria with actin tails) (Bt [7]): does not inhibit actin-mediated intracellular motility | bacterial loads in liver and spleen compared to lung of surviving mice (Bp 1026b [8]; mouse, in vivo): low or undetectable bacterial loads | bacterial loads in lungs, livers, and spleens (Bp 1026b [8]; mouse, in vivo): decreased, although to a lesser extent | histopathology: inflammation in pulmonary, hepatic, and splenic tissue (Bp 1026b [8]; mouse, in vivo): significantly reduced inflammation | mice surviving the entire study duration (10 days) (Bp 1026b [8]; mouse, in vivo): 12% | mice surviving to five days post-infection (Bp 1026b [8]; mouse, in vivo): 36.7% | overall efficacy compared to ceftazidime (Bp 1026b [8]; mouse, in vivo): superiority to ceftazidime | expression of Hcp (pellet) [9]: does not affect expression of Hcp | secretion of Hcp (supernatant) [9]: inhibits secretion of Hcp | inhibition of plaque formation by Bt E264 (screen and validation) (Bt E264): inhibitors; also recorded: activity against Bp and Bt | intercellular spread by time of addition (Bt E264): robustly inhibits intercellular spread irrespective of time of addition | plaque formation by Bt (Bt E264): completely inhibits plaque formation; also recorded: completely abolished plaque formation | plaque formation by Bt at increasing concentrations (Bt E264): inhibits plaque formation

O=c1[nH]cc(F)c(=O)[nH]1 [5-FU, 5-fluorouracil]
plaque formation by Bt (Bt E264; 25 μM): completely abolished plaque formation

CCn1cc(C(=O)O)c(=O)c2cc(F)c(N3CCOCC3)cc21 [BFX, 1-Ethyl-6-fluoro-7-(4-morpholinyl)-4-oxo-1,4-dihydro-3-quinolinecarboxylic acid]
TD = toxic dose (dose at which HEK293 cell growth is significantly affected) (HEK293 cells): >50 µM | effect on HEK293 cell viability (HEK293 cells): no effect on cell viability | inhibition of plaque formation by Bm 23344 (validation) (Bm 23344): consistently inhibit plaque formation | MIC [10]: > 7 µg/mL | negative supercoiling activity of E. coli DNA gyrase (E. coli DNA gyrase): inhibits the negative supercoiling activity | MIC (Bp82.270 (BpeEF-OprC+)): 32 µg/mL (≈ 99.9 µM) | plaque formation by Bp MSHR305 (Bp MSHR305; 5 μM): effective at ablating plaque formation | ED = effective dose (IC100) against Bp (Bp 1026b [1]): 0.1 µM | inhibition of plaque formation / intercellular spread by Bp 1026b (Bp 1026b [1]): near-complete inhibition | inhibition of plaque formation by Bp 1026b (validation) (Bp 1026b [1]): consistently inhibit plaque formation | MIC (S. aureus ATCC 29213): > 7 µg/mL | MIC [11]: > 7 µg/mL | MIC [12]: > 7 µg/mL | growth of E. coli ATCC 25922 (in words) (E. coli 25922): inhibitory for the growth | MIC (E. coli 25922): 4 µg/mL (≈ 12.5 µM) | MIC [13]: > 7 µg/mL | MIC [14]: > 7 µg/mL | MIC (Bp82 (BpeEF-OprC-)): 2 µg/mL (≈ 6.24 µM) | dose needed to inhibit growth in laboratory medium (Bt [4]): 5 µM | in vitro growth of Bt (Bt [4]): does not inhibit in vitro growth | MIC (Bt [4]): 2.6 µg/mL (≈ 8.12 µM) | MIC (Bp82.284 (BpeEF-OprC+)): 32 µg/mL (≈ 99.9 µM) | MIC (Bp82.285 (BpeEF-OprC+)): 32 µg/mL (≈ 99.9 µM) | MIC [15]: > 7 µg/mL | intracellular replication of Bt (Bt [5]): inhibits intracellular replication | bacterial loads in liver and spleen compared to lung of surviving mice (Bp 1026b [8]; 10 days): low or undetectable bacterial loads | bacterial loads in lungs, livers, and spleens (Bp 1026b [8]; mouse, in vivo): decreased relative to placebo and ceftazidime-treated controls | histopathology: inflammation in pulmonary, hepatic, and splenic tissue (Bp 1026b [8]; mouse, in vivo): nearly undetectable inflammation | overall efficacy compared to ceftazidime (Bp 1026b [8]; mouse, in vivo): superiority to ceftazidime | mice surviving the entire study duration (10 days) (Bp 1026b [8]; n=8): 63% | mice surviving to five days post-infection (Bp 1026b [8]; n=8): 100% | growth of Pseudomonas aeruginosa ATCC 27853 (in words) [16]: inhibitory for the growth | MIC [16]: 4 µg/mL (≈ 12.5 µM) | fold lower concentration than Cip at which plaque formation by Bt is prevented (Bt E264): 8 fold | inhibition of plaque formation / intercellular spread by Bt E264 (Bt E264): near-complete inhibition | inhibition of plaque formation by Bt E264 (screen and validation) (Bt E264): consistently inhibit plaque formation

O=C(O)c1cn(C2CC2)c2cc(N3CCNCC3)c(F)cc2c1=O [Cip, ciprofloxacin]
MIC [10]: > 7 µg/mL | negative supercoiling activity of E. coli DNA gyrase (E. coli DNA gyrase): inhibits the negative supercoiling activity | MIC (Bp82.270 (BpeEF-OprC+)): 16 µg/mL (≈ 48.3 µM) | MIC (S. aureus ATCC 29213): > 7 µg/mL | MIC [12]: > 7 µg/mL | MIC (E. coli 25922): 2 µg/mL (≈ 6.04 µM) | MIC [13]: > 7 µg/mL | MIC (Bp82 (BpeEF-OprC-)): 1 µg/mL (≈ 3.02 µM) | MIC (Bt [4]): 1.3 µg/mL (≈ 3.92 µM) | MIC (Bp82.284 (BpeEF-OprC+)): 16 µg/mL (≈ 48.3 µM) | MIC (Bp82.285 (BpeEF-OprC+)): 16 to 32 µg/mL (≈ 48.3 to 96.6 µM) | MIC [15]: > 7 µg/mL | MIC [16]: 4 µg/mL (≈ 12.1 µM)

O=c1[nH]c(=O)n([C@@H]2O[C@H](CO)[C@@H](O)[C@H]2O)cc1F [F-UR, Fluorouridine]
plaque formation by Bt (Bt E264): minimally inhibitory; also recorded: fully inhibitory

O=c1[nH]c(=O)n([C@H]2C[C@H](O)[C@@H](CO)O2)cc1F [F-UdR, fluorodeoxyuridine]
plaque formation by Bt (Bt E264): lack of inhibitory activity

C[C@H]1COc2c(N3CCN(C)CC3)c(F)cc3c(=O)c(C(=O)O)cn1c23 [Levo, levofloxacin]
MIC [10]: > 7 µg/mL | MIC (S. aureus ATCC 29213): > 7 µg/mL | MIC [11]: > 7 µg/mL | MIC [12]: > 7 µg/mL | MIC (E. coli 25922): 4 µg/mL (≈ 11.1 µM) | MIC [13]: > 7 µg/mL | MIC [14]: > 7 µg/mL | MIC [15]: > 7 µg/mL | MIC [16]: 5 µg/mL (≈ 13.8 µM)

C[C@@H]1CC[C@H]2[C@@H](C)C(=O)O[C@@H]3O[C@@]4(C)CC[C@@H]1[C@]32OO4 [artemisinin]
inhibition of plaque formation by Bm 23344 (validation) (Bm 23344): specific for Bm only

CC(C)(O/N=C(\C(=O)N[C@@H]1C(=O)N2C(C(=O)[O-])=C(C[n+]3ccccc3)CS[C@H]12)c1csc(N)n1)C(=O)O [ceftazidime]
time by which all animals succumbed to infection (Bp 1026b [8]; mouse, in vivo): by five days

CC[C@@]1([C@@H]2O[C@@H]([C@H]3O[C@@](O)(CO)[C@H](C)C[C@@H]3C)C[C@@H]2C)CC[C@H]([C@]2(C)CC[C@]3(C[C@H](O)[C@@H](C)[C@@H]([C@@H](C)[C@@H](OC)[C@H](C)C(=O)O)O3)O2)O1 [monensin]
inhibition of plaque formation by Bm 23344 (validation) (Bm 23344): specific for Bm only

COc1cc(Cc2cnc(N)nc2N)cc(OC)c1OC [trimethoprim]
inhibition of plaque formation by Bt E264 (screen and validation) (Bt E264): inhibitors
